Source: patent publication US20100041089A1, “IMPROVED METHOD FOR DETECTING CHEMICAL […]” (priority 2006, published 2010)

Tested on: yeast genes (expressed mRNA)
Assay: DNA chip measurement of expressed mRNA of yeast genes after culture with a toxic chemical substance
Type: cell-based, Saccharomyces cerevisiae S288C
Method in brief: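 Fluorescence ratio, treated over untreated, read by chip scanner; ratio of two or more counted significant. Cells: S288C yeast, YPD, 25° C, chemical added at log phase for 2 h at growth-inhibiting, sublethal level. Cy3/Cy5-labeled cDNA from oligo-dT-purified mRNA.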

N#Cc1c(Cl)c(Cl)c(Cl)c(C#N)c1Cl [(9), 2,4,5,6-Tetrachloro-1,3-benzenedicarbonitrile] was tested, and the “The level of expressed mRNA in the presence of chemical substance/The level of expressed mRNA in the absence of chemical substance” value (yeast gene YJL108C, cultured two hours with substance) was 0.3, the “The level of expressed mRNA in the presence of chemical substance/The level of expressed mRNA in the absence of chemical substance” value (yeast gene YJL144W, cultured two hours with substance) was 14.6 and the “The level of expressed mRNA in the presence of chemical substance/The level of expressed mRNA in the absence of chemical substance” value (yeast gene YJL149W, cultured two hours with substance) was 1.5. The “The level of expressed mRNA in the presence of chemical substance/The level of expressed mRNA in the absence of chemical substance” value (yeast gene YJL151C, cultured two hours with substance) was 0.5, the “The level of expressed mRNA in the presence of chemical substance/The level of expressed mRNA in the absence of chemical substance” value (yeast gene YJL152W, cultured two hours with substance) was 0.3 and the “The level of expressed mRNA in the presence of chemical substance/The level of expressed mRNA in the absence of chemical substance” value (yeast gene YJL161W, cultured two hours with substance) was 3.1. For the same compound, the “The level of expressed mRNA in the presence of chemical substance/The level of expressed mRNA in the absence of chemical substance” value (yeast gene YJL163C, cultured two hours with substance) was 14.5, the “The level of expressed mRNA in the presence of chemical substance/The level of expressed mRNA in the absence of chemical substance” value (yeast gene YJL171C, cultured two hours with substance) was 1.0 and the “The level of expressed mRNA in the presence of chemical substance/The level of expressed mRNA in the absence of chemical substance” value (yeast gene YJL186W, cultured two hours with substance) was 0.2. The “The level of expressed mRNA in the presence of chemical substance/The level of expressed mRNA in the absence of chemical substance” value (yeast gene YJR008W, cultured two hours with substance) was 1.8, the “The level of expressed mRNA in the presence of chemical substance/The level of expressed mRNA in the absence of chemical substance” value (yeast gene YJR074W, cultured two hours with substance) was 3.7 and the “The level of expressed mRNA in the presence of chemical substance/The level of expressed mRNA in the absence of chemical substance” value (yeast gene YJR085C, cultured two hours with substance) was 3.7. The “The level of expressed mRNA in the presence of chemical substance/The level of expressed mRNA in the absence of chemical substance” value (yeast gene YJR155W) was 38.2, the “The level of expressed mRNA in the presence of chemical substance/The level of expressed mRNA in the absence of chemical substance” value (yeast gene YJR155W, cultured for two hours with substance) was 38.2 and the “The level of expressed mRNA in the presence of chemical substance/The level of expressed mRNA in the absence of chemical substance” value (yeast gene YKL071W, cultured two hours with substance) was 162.2. For the same compound, the “The level of expressed mRNA in the presence of chemical substance/The level of expressed mRNA in the absence of chemical substance” value (yeast gene YKL086W, cultured two hours with substance) was 8.2, the “The level of expressed mRNA in the presence of chemical substance/The level of expressed mRNA in the absence of chemical substance” value (yeast gene YKL107W, cultured two hours with substance) was 28.2 and the “The level of expressed mRNA in the presence of chemical substance/The level of expressed mRNA in the absence of chemical substance” value (yeast gene YKL151C, cultured two hours with substance) was 3.3. The “The level of expressed mRNA in the presence of chemical substance/The level of expressed mRNA in the absence of chemical substance” value (yeast gene YKL153W, cultured two hours with substance) was 0.8, the “The level of expressed mRNA in the presence of chemical substance/The level of expressed mRNA in the absence of chemical substance” value (yeast gene YKL195W, cultured two hours with substance) was 3.6 and the “The level of expressed mRNA in the presence of chemical substance/The level of expressed mRNA in the absence of chemical substance” value (yeast gene YKR091W, cultured two hours with substance) was 1.0. The “The level of expressed mRNA in the presence of chemical substance/The level of expressed mRNA in the absence of chemical substance” value (yeast gene YLL055W (transport facilitation protein gene)) was 19.1, the “The level of expressed mRNA in the presence of chemical substance/The level of expressed mRNA in the absence of chemical substance” value (yeast gene YLL056C, cultured two hours with substance) was 58.8 and the “The level of expressed mRNA in the presence of chemical substance/The level of expressed mRNA in the absence of chemical substance” value (yeast gene YLL060C (stress protein genes)) was 13.0. The “The level of expressed mRNA in the presence of chemical substance/The level of expressed mRNA in the absence of chemical substance” value (yeast gene YLL062C, cultured two hours with substance) was 14.9, the “The level of expressed mRNA in the presence of chemical substance/The level of expressed mRNA in the absence of chemical substance” value (yeast gene YLR031W, cultured two hours with substance) was 0.9 and the “The level of expressed mRNA in the presence of chemical substance/The level of expressed mRNA in the absence of chemical substance” value (yeast gene YLR054C, cultured two hours with substance) was 2.7. The “The level of expressed mRNA in the presence of chemical substance/The level of expressed mRNA in the absence of chemical substance” value (yeast gene YLR149C, cultured two hours with substance) was 6.2, the “The level of expressed mRNA in the presence of chemical substance/The level of expressed mRNA in the absence of chemical substance” value (yeast gene YLR152C, cultured two hours with substance) was 0.6 and the “The level of expressed mRNA in the presence of chemical substance/The level of expressed mRNA in the absence of chemical substance” value (yeast gene YLR194C, cultured two hours with substance) was 0.9. The “The level of expressed mRNA in the presence of chemical substance/The level of expressed mRNA in the absence of chemical substance” value (yeast gene YLR204W, cultured two hours with the substance) was 1.4, the “The level of expressed mRNA in the presence of chemical substance/The level of expressed mRNA in the absence of chemical substance” value (yeast gene YLR205C, cultured two hours with substance) was 1.5 and the “The level of expressed mRNA in the presence of chemical substance/The level of expressed mRNA in the absence of chemical substance” value (yeast gene YLR324W, cultured two hours with substance) was 3.1. The “The level of expressed mRNA in the presence of chemical substance/The level of expressed mRNA in the absence of chemical substance” value (yeast gene YLR350W, cultured two hours with substance) was 0.6, the “The level of expressed mRNA in the presence of chemical substance/The level of expressed mRNA in the absence of chemical substance” value (yeast gene YLR387C, cultured two hours with substance) was 7.8 and the “The level of expressed mRNA in the presence of chemical substance/The level of expressed mRNA in the absence of chemical substance” value (yeast gene YLR460C, cultured two hours with substance) was 13.9. The “The level of expressed mRNA in the presence of chemical substance/The level of expressed mRNA in the absence of chemical substance” value (yeast gene YML117W, cultured two hours with substance) was 1.0, the “The level of expressed mRNA in the presence of chemical substance/The level of expressed mRNA in the absence of chemical substance” value (yeast gene YMR009W, cultured two hours with substance) was 3.4 and the “The level of expressed mRNA in the presence of chemical substance/The level of expressed mRNA in the absence of chemical substance” value (yeast gene YMR067C, cultured two hours with substance) was 4.0. For the same compound, the “The level of expressed mRNA in the presence of chemical substance/The level of expressed mRNA in the absence of chemical substance” value (yeast gene YMR090W, cultured two hours with substance) was 16.7, the “The level of expressed mRNA in the presence of chemical substance/The level of expressed mRNA in the absence of chemical substance” value (yeast gene YMR097C, cultured two hours with substance) was 2.1 and the “The level of expressed mRNA in the presence of chemical substance/The level of expressed mRNA in the absence of chemical substance” value (yeast gene YMR102C, cultured two hours with substance) was 1.7. The “The level of expressed mRNA in the presence of chemical substance/The level of expressed mRNA in the absence of chemical substance” value (yeast gene YMR107W, cultured two hours with substance) was 6.0, the “The level of expressed mRNA in the presence of chemical substance/The level of expressed mRNA in the absence of chemical substance” value (yeast gene YMR140W, cultured two hours with substance) was 1.8 and the “The level of expressed mRNA in the presence of chemical substance/The level of expressed mRNA in the absence of chemical substance” value (yeast gene YMR180C, cultured two hours with substance) was 1.8. The “The level of expressed mRNA in the presence of chemical substance/The level of expressed mRNA in the absence of chemical substance” value (yeast gene YMR184W, cultured two hours with substance) was 2.1, the “The level of expressed mRNA in the presence of chemical substance/The level of expressed mRNA in the absence of chemical substance” value (yeast gene YMR191W, cultured two hours with substance) was 2.2 and the “The level of expressed mRNA in the presence of chemical substance/The level of expressed mRNA in the absence of chemical substance” value (yeast gene YMR195W, cultured two hours with substance) was 0.2. For the same compound, the “The level of expressed mRNA in the presence of chemical substance/The level of expressed mRNA in the absence of chemical substance” value (yeast gene YMR295C, cultured two hours with substance) was 1.0 and the “The level of expressed mRNA in the presence of chemical substance/The level of expressed mRNA in the absence of chemical substance” value (yeast gene YMR315W, cultured two hours with substance) was 2.4.
